Assay results reported in patent US9403806B1, “Cognition enhancing compounds and compositions, methods of making, and methods of treating” (NeuroSolis, Inc., priority 2010, dated 2016).
Where two headings read alike, the source gives them in different places.

What was measured:
[1] = tested on: pooled male human liver microsomes; assay: Metabolism in human liver microsomes, Example 45; type: in vitro ADME
Procedure: Aliquots were removed every 2 hours, and 1% formic acid was added to halt the reaction. Samples were centrifuged, filtered through 0.2 micron spinfilter, and the amount of each compound in the supernatants was quantitated using LC/MS/MS as follows. The ultra-filtrates were subjected to reverse-phase liquid chromatography using a 150×2.1 mm Agilent C8-reverse phase column on a Shimadzu Prominence LC, eluting the compound with a gradient of 2%-50% acetonitrile+0.1% formic acid over 5 minutes. The concentration of the compound in the column effluent was measured using an Applied Biosystems API-3200 triple quadrupole mass spectrometer equipped with a Turbo V source (electrospray sample injection) system. The counts of the characteristic parent ions of the protonated compound and product ions were converted to concentration by comparison with a standard calibration curve. The parent/daughter ion pairs that were monitored for each compound were: 166.0/82.0 (105), 166.0/82.0 (106b), 166.0/82.0 (106a), 169.0/83.0 (136), 168.2/83.0 (121), 168.1/83.0 (122a), 168.1/83.0 (122b), 170.2/83.0 (134), 168.2/84.1 (135), 168.1/84.1 (137) and 169.2/82.1 (138).

[2] = molecular target: T1, human muscarinic M3 receptors (Homo sapiens, UniProt P20309); type: cell-based; details: for huM3/A9L Smax: percentage of maximal stimulation by carbachol; for huM3/A9L Potency relative to carbachol: relative to the potency of carbachol at its EC50
T1 construct: host or cells: A9L cells
T1 sequence (P20309 whole entry): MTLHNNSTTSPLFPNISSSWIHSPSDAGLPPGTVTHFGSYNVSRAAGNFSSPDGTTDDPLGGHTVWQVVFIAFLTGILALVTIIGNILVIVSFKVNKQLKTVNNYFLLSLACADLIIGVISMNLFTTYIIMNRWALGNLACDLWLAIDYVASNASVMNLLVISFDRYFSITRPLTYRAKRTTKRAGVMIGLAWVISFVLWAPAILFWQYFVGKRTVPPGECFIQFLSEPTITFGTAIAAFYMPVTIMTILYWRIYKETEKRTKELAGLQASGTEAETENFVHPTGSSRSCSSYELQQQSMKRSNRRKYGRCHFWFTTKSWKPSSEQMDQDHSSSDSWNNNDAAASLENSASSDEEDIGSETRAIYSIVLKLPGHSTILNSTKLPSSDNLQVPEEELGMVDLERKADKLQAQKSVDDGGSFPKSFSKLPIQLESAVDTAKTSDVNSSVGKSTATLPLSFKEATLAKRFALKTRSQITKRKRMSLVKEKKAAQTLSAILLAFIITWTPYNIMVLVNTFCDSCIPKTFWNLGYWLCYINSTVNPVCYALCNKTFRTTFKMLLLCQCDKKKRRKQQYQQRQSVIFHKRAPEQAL
Procedure: (§1) Muscarinic M1 and M3 agonist activity was evaluated by measuring the stimulation of inositol phosphate (IP) production in the presence of lithium chloride from A9L cells transfected with expression plasmids containing human muscarinic M1 and M3 receptors, respectively. The cell lines were a gift from Professor William Messer, and the methods were as described in Tejada et al. (J. Med. Chem. 2006; 49: 7518-31) except that the assay was scaled down to run in 384-well plates and the concentration of inositol-1-phosphate in the lysates was determined using the non-isotopic IP-One Terbium TR-FRET assay kit (Cisbio Bioassays, cat. #62IPAPEJ) according to the manufacturer's instructions.
(§2) Cells were grown to 90% confluence in 384-well high-base, small-volume plates (Greiner Bio-One), compounds were added at suitable concentrations in growth medium containing 10 mM LiCl, buffered with an extra 10 mM HEPES (pH=7.4), and incubated for 60 minutes at 37° C. Cells were lysed and assayed for IP following the manufacturer's instructions.
(§3) The value for a full agonist is 100%, while partial agonists give values below 100%.

[3] = molecular target: T2, human muscarinic M1 receptors (Homo sapiens, UniProt P11229); type: cell-based; details: for huM1/A9L Smax: percentage of maximal stimulation by carbachol; for huM1/A9L Potency relative to carbachol: relative to the potency of carbachol at its EC50
T2 construct: host or cells: A9L cells
T2 sequence (P11229 1-460): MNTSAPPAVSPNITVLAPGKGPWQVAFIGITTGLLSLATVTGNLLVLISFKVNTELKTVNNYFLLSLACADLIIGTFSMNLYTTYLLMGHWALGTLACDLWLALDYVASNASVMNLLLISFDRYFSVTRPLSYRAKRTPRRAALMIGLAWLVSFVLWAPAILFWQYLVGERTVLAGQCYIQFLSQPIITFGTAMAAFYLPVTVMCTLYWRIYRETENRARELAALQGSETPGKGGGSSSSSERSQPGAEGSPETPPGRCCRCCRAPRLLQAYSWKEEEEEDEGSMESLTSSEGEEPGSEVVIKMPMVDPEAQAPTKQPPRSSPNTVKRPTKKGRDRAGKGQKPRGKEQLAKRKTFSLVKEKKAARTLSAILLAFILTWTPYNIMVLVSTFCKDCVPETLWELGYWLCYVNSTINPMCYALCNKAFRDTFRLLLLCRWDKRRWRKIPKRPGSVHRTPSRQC
Procedure: as §1, §2, §3

[4] = Blood and brain concentrations (rats), tail vein injection; type: in vivo, Long-Evans Hooded rats; details: rat; for Kp at 1 h: brain and plasma, intravenous, Table 114, read-out: Brain/Plasma Ratio
Procedure: Long-Evans Hooded rats (Charles River: male, 230-300 g) were dosed with solutions of test compounds in PBS by tail vein injection. The dose for all compounds was 3 mg/kg. At one hour, the animals were anesthetized with isoflurane, and then euthanized by decapitation. Trunk blood was collected into a 1.5 mL microcentrifuge tube containing 15 U Heparin, and the plasma recovered after centrifugation. Brains were dissected, weighed, immediately chilled to 4° C., and homogenized using a PowerGen 125 homogenizer in five volumes of ice-cold 2% formic acid. Proteins were precipitated from plasma and brain homogenate with nine and five volumes respectively of ice-cold 2% formic acid and clarified by centrifugation. The supernatant was ultra-filtered by centrifugation through a 3K MWCO spin column (Pall Life Sciences), following the manufacturer's instructions. The concentration of compound in the ultra-filtrate was subjected to reverse-phase liquid chromatography using a 150×2.1 mm Agent C8 reverse-phase column on a Shimadzu Prominence LC, eluting the compounds with a gradient of 2% to 50% of acetonitrile+0.1% formic acid for all compounds. The concentration of the compound in the column effluent was measured using an Applied Biosystems API-3200 triple quadrupole mass spectrometer equipped with an electrospray sample injection system. The counts of the characteristic parent and product ions of each test compound were converted to concentration units by comparison with a standard curve.

[5] = tested on: muscarinic M1 receptors in the hippocampus; assay: In vivo inositol phosphate increase in hippocampus, Example 44; parameters: species or system Long Evans Hooded rats; details: rat, 3 mg/kg sc
Procedure: (§4) In lithium chloride-treated laboratory rodents, engagement of muscarinic M1 receptors in the hippocampus may usefully be evaluated in vivo by measuring the increase in the tissue of inositol phosphate (Bymaster F P et al Brain Res 795 (1998) 179-190). This may also be extended to measure engagement of muscaric M3 receptors in the salivary glands.
(§5) Experimental compounds were administered subcutaneously at 3 mg/kg using standard techniques to Long Evans Hooded rats weighing 225 to 350 g, and which had been pretreated with a subcutaneous injection of lithium chloride at a suitable dose between 3 and 5 mmole/kg. At suitable times the animals were briefly anesthetized using 5% isoflurane and euthanized by decapitation. The brains and submaxillary salivary glands were rapidly dissected out, and the hippocampuses were dissected from the brains. The dissected tissues were homogenized in a suitable volume of ice-cold phosphate-buffered saline containing 10 mM lithium chloride (pH=7.4) using a tissue homogenizer, and used immediately or frozen in aliquots at −80° C. for future use. The concentration of inositol-1-phosphate was determined in the homogenates using the […] IP-One Terbium TR-FRET assay kit (Cisbio Bioassays, cat. #62IPAPEJ) according to the manufacturer's instructions.

[6] = Blood and brain concentrations (rats), tail vein injection; type: in vivo, Long-Evans Hooded rats; details: rat, 3 mg/kg tail vein injection; for half-life: male, Long-Evans Hooded, plasma, iv, 3 mg/kg, read-out: Plasma Terminal Half-life (converted)
[7] = tested on: muscarinic M3 receptors in the salivary glands; assay: In vivo inositol phosphate increase in salivary glands, Example 44; parameters: species or system Long Evans Hooded rats; details: rat, 3 mg/kg sc
Procedure: as §4, §5

in vitro = in vitro ADME; details: pH 7.4, 24 hours, room temperature; for Papp at 24 h, 400 µM: PAMPA, pH 7.4, 400 μM, read-out: PAMPA Permeability Coefficient (×10^6)
Procedure: PAMPA is a useful in vitro model for predicting the passive diffusion of drugs across the blood-brain barrier (Li, D et al Eur jour of Med Chem 38 (2003) 223-232).
Compounds were diluted in a 100 mM phosphate buffer (pH 7.4) to a concentration of 400 μM and the stock solutions were placed into a 96-well filter plate (Millipore, #MAIPN4510) pre-wetted with 20 mg/mL porcine brain polar lipid extract in 100% dodecane (Avanti, #131022) and placed into a 96-well acceptor plate (Millipore, #MSSACCEPTOR) whose wells were filled with the same phosphate buffer as in the filter plate. This assembly was incubated at room temperature for 24 hours. The experiment was halted by separating the filter plate from the acceptor plate. Aliquots were removed from the filter plate wells, acceptor plate wells, and stock solutions, and 1% trifluoroacetic acid was added to each. All solutions were measured by LC/UV, and passive diffusion rates were calculated using the peak area values (Avdeef, Alex. 2003. Page 147 in Absorption and Drug Development. Hoboken, N.J.: John Wiley & Sons).

[8] = male, Long-Evans Hooded, 3 mg/kg
[9] = male, Long-Evans Hooded, in vivo, 3 mg/kg, 3 mg/kg tail vein injection, read-out: Brain Concentration at 1 hr
[10] = male, Long-Evans Hooded, in vivo, 3 mg/kg, 3 mg/kg tail vein injection, read-out: Plasma Concentration at 1 hr
[11] = 3 mg/kg tail vein injection, read-out: Brain Concentration at 1 hr

Structure (SMILES)	Loss at 6 hrs (%) [1]	huM3/A9L Smax [2]	huM1/A9L Smax [3]	Kp at 1 h [4, 8]	concentration at 1 h [4, 9]	concentration at 1 h [4, 10]	Increase in Inositol Phosphate in Hippocampus/Control ([5]; 5 mmole/kg LiCl)	half-life [6]	Increase in Inositol Phosphate in Salivary Gland/Control ([7]; 5 mmole/kg LiCl)	Papp at 24 h, 400 µM (in vitro)	huM3/A9L Potency relative to carbachol [2]	huM1/A9L Potency relative to carbachol [3]	also measured
[2H]C1([2H])NCC2(c3nc(C)no3)CC12 (racemic) [Compound 121, 5-(4,4-d2-3-Azabicyclo[3.1.0]hexan-1-yl)-3-methyl-1,2,4-oxadiazole]	13%	37%	73%	0.51	8.6 µM	16.8 µM	795%	1.26 h	239%	3.78 ×10⁻⁶ cm/s	–	–	–
[2H]C1([2H])NC([2H])([2H])C2(c3nc(C)no3)CC12 (stereo not shown) [Compound 134, 5-(2,2,4,4-d4-3-Azabicyclo[3.1.0]hexan-1-yl)-3-methyl-1,2,4-oxadiazole]	10%	41%	61%	0.65	8.4 µM	13.5 µM	574%	1.4 h	214%	3.46 ×10⁻⁶ cm/s	0.35	1.17	–
Cc1noc([C@@]23CNC[C@@H]2C3)n1 [Compound 106a, 5-((1R,5R)-3-Azabicyclo[3.1.0]hexan-1-yl)-3-methyl-1,2,4-oxadiazole]	50%	45%	80%	0.39	3.5 µM	5.6 µM	376%	0.7 h	191%	4.25 ×10⁻⁶ cm/s	0.46	1.72	–
[2H]C([2H])([2H])c1noc(C23CNC([2H])([2H])C2C3)n1 (stereo not shown) [Compound 136, 5-(4,4,5-d3-3-azabicyclo[3.1.0]hexan-1-yl)-3-methyl-1,2,4-oxadiazole]	11%	36%	41%	0.56	–	13.6 µM	–	1.15 h	–	3.71 ×10⁻⁶ cm/s	0.45	0.89	concentration at 1 h [4, 11]: 7.4 µM; Increase in Inositol Phosphate in Hippocampus/Control ([5]; 5 mmole/kg LiCl, 3 mg/kg): 694%; Increase in Inositol Phosphate in Salivary Gland/Control ([7]; 5 mmole/kg LiCl, 3 mg/kg): 231%
Cc1noc([C@]23CNC[C@H]2C3)n1 [Compound 106b, 5-((1S,5S)-3-Azabicyclo[3.1.0]hexan-1-yl)-3-methyl-1,2,4-oxadiazole]	29%	42%	40%	0.6	5.5 µM	9.5 µM	141%	1.1 h	104%	4.37 ×10⁻⁶ cm/s	0.27	0.51	–
[2H]C([2H])([2H])c1noc(C23CNC([2H])([2H])C2C3)n1 (stereo not shown) [Compound 135, 5-(2,2-d2-3-azabicyclo[3.1.0]hexan-1-yl)-3-methyl-1,2,4-oxadiazole]	26%	46%	70%	–	–	–	–	–	–	–	0.49	1.39	Brain/plasma ratio ([4]; Table 114, 3 mg/kg): 0.61; Plasma Concentration at 1 hr ([4]; 3 mg/kg tail vein injection): 13.8 µM; concentration at 1 h [4, 11]: 7.7 µM; Increase in Inositol Phosphate in Hippocampus/Control ([5]; 5 mmole/kg LiCl, 3 mg/kg): 614%; Plasma Terminal Half-life [6]: 1.0 h; Increase in Inositol Phosphate in Salivary Gland/Control ([7]; 5 mmole/kg LiCl, 3 mg/kg): 194%; PAMPA Permeability Coefficient (×10^6) (in vitro; 400 μM): 5.40 ×10^6
[2H]C1([2H])NC[C@]2(c3nc(C)no3)C[C@H]12 [Compound 122b, 5-((1S,5S)-4,4-d2-3-azabicyclo[3.1.0]hexan-1-yl)-3-methyl-1,2,4-oxadiazole]	13%	28%	47%	0.58	5.1 µM	8.8 µM	–	1.3 h	–	3.7 ×10⁻⁶ cm/s	0.50	0.54	Increase in Inositol Phosphate in Hippocampus/Control ([5]; 3 mmole/kg LiCl): 150%; Increase in Inositol Phosphate in Salivary Gland/Control ([7]; 3 mmole/kg LiCl): 163%
